Results taken from patent publication US10004701B2, “Methods and compositions for treating infection” (UNIVERSITY OF ROCHESTER, priority 2012, dated 2018).
Where a name gives a salt, the structure may show the parent alone. Read-outs that look alike come from different tables or passages of the source.

Legend:
Experiment in all cases: AK assay 384-well format, Prestwick library screening
E. faecium = assay type: cell-based, Enterococcus faecium; conditions: 50 μM final drug concentration; for fold induction at 50 µM: Enterococcus faecium, 3 h
K. pneumoniae = assay type: cell-based, Klebsiella pneumoniae; conditions: 50 μM final drug concentration; for fold induction at 50 µM: Klebsiella pneumoniae, 3 h
E. cloacae = assay type: cell-based, Enterobacter cloacae; conditions: 50 μM final drug concentration; for fold induction at 50 µM: Enterobacter cloacae, 3 h
P. aeruginosa = assay type: cell-based, Pseudomonas aeruginosa; conditions: 50 μM final drug concentration; for fold induction at 50 µM: Pseudomonas aeruginosa, 3 h
[1] = tested on: A. baumannii strain 98-37-09; assay type: cell-based, Acinetobacter baumannii; conditions: 50 μM final drug concentration; for fold induction at 50 µM: Acinetobacter baumannii, 983709, 3 h
[2] = tested on: S. aureus strain USA300-0114; assay type: cell-based, Staphylococcus aureus; conditions: 50 μM final drug concentration; for fold induction at 50 µM: Staphylococcus aureus, USA300, 3 h
E. coli = assay type: cell-based, Escherichia coli; conditions: 50 μM final drug concentration; for fold induction at 50 µM: Escherichia coli, 3 h
[3] = planktonic, cutoff for positive-scoring molecules 3-fold increase, read-out: AK-based Prestwick Library Screening Results, E. faecium (fold increase in extracellular AK activity)
[4] = planktonic, cutoff for positive-scoring molecules 3-fold increase, read-out: AK-based Prestwick Library Screening Results, K. pneumoniae (fold increase in extracellular AK activity)
[5] = planktonic, cutoff for positive-scoring molecules 3-fold increase, read-out: AK-based Prestwick Library Screening Results, E. cloacae (fold increase in extracellular AK activity)
[6] = planktonic, cutoff for positive-scoring molecules 3-fold increase, read-out: AK-based Prestwick Library Screening Results, P. aeruginosa (fold increase in extracellular AK activity)
[7] = planktonic, cutoff for positive-scoring molecules 3-fold increase, read-out: AK-based Prestwick Library Screening Results, A. baumannii (fold increase in extracellular AK activity)
[8] = planktonic, cutoff for positive-scoring molecules 3-fold increase, read-out: AK-based Prestwick Library Screening Results, S. aureus (fold increase in extracellular AK activity)
[9] = planktonic, cutoff for positive-scoring molecules 3-fold increase, read-out: AK-based Prestwick Library Screening Results, E. coli (fold increase in extracellular AK activity)
[10] = planktonic, cutoff for positive-scoring molecules 3-fold increase
[11] = planktonic, cutoff for positive 3-fold increase
[12] = planktonic E. faecium, cutoff for positive-scoring molecules 3-fold increase, read-out: AK-based Prestwick Library Screening Results, E. faecium (increase in extracellular AK activity)
[13] = planktonic K. pneumoniae, cutoff for positive-scoring molecules 3-fold increase, read-out: AK-based Prestwick Library Screening Results, K. pneumoniae (increase in extracellular AK activity)
[14] = planktonic E. cloacae, cutoff for positive-scoring molecules 3-fold increase, read-out: AK-based Prestwick Library Screening Results, E. cloacae (increase in extracellular AK activity)
[15] = planktonic P. aeruginosa, cutoff for positive-scoring molecules 3-fold increase, read-out: AK-based Prestwick Library Screening Results, P. aeruginosa (increase in extracellular AK activity)
[16] = planktonic A. baumannii, cutoff for positive-scoring molecules 3-fold increase, read-out: AK-based Prestwick Library Screening Results, A. baumannii (increase in extracellular AK activity)
[17] = planktonic S. aureus, cutoff for positive-scoring molecules 3-fold increase, read-out: AK-based Prestwick Library Screening Results, S. aureus (increase in extracellular AK activity)
[18] = planktonic E. coli, cutoff for positive-scoring molecules 3-fold increase, read-out: AK-based Prestwick Library Screening Results, E. coli (increase in extracellular AK activity)

CC(C)(C(=O)c1cccnc1)c1cccnc1 [Metyrapone]
fold induction at 50 µM (E. faecium; [3]): 0.8 | fold induction at 50 µM (K. pneumoniae; [4]): 0.7 | fold induction at 50 µM (E. cloacae; [5]): 1.2 | fold induction at 50 µM (P. aeruginosa; [6]): 1 | fold induction at 50 µM [1, 7]: 1 | fold induction at 50 µM [2, 8]: 0.8 | fold induction at 50 µM (E. coli; [9]): 0.9

Cl.Cl.c1ccc2c3c([nH]c2c1)C1C2CCC(C4CCCNC42)N1CC3 (stereo not drawn) [Nitrarine dihydrochloride]
AK-based Prestwick Library Screening Results, E. faecium (fold increase in extracellular AK activity) (E. faecium; [10]): 1.0 | AK-based Prestwick Library Screening Results, K. pneumoniae (fold increase in extracellular AK activity) (K. pneumoniae; [10]): 1.1 | AK-based Prestwick Library Screening Results, E. cloacae (fold increase in extracellular AK activity) (E. cloacae; [10]): 1.4 | AK-based Prestwick Library Screening Results, P. aeruginosa (fold increase in extracellular AK activity) (P. aeruginosa; [10]): 1.1 | AK-based Prestwick Library Screening Results, A. baumannii (fold increase in extracellular AK activity) [1, 10]: 1.0 | AK-based Prestwick Library Screening Results, S. aureus (fold increase in extracellular AK activity) [2, 10]: 1.3 | AK-based Prestwick Library Screening Results, E. coli (fold increase in extracellular AK activity) (E. coli; planktonic, […]): 1.2

COc1c2occc2cc2ccc(=O)oc12 [Methoxy-8-psoralen]
AK-based Prestwick Library Screening Results, E. faecium (fold increase in extracellular AK activity) (E. faecium; [11]): 1.1 | AK-based Prestwick Library Screening Results, K. pneumoniae (fold increase in extracellular AK activity) (K. pneumoniae; [11]): 0.9 | AK-based Prestwick Library Screening Results, E. cloacae (fold increase in extracellular AK activity) (E. cloacae; [11]): 1.5 | AK-based Prestwick Library Screening Results, P. aeruginosa (fold increase in extracellular AK activity) (P. aeruginosa; [11]): 1.0 | AK-based Prestwick Library Screening Results, A. baumannii (fold increase in extracellular AK activity) [1, 11]: 1.0 | AK-based Prestwick Library Screening Results, S. aureus (fold increase in extracellular AK activity) [2, 11]: 1.0 | AK-based Prestwick Library Screening Results, E. coli (fold increase in extracellular AK activity) (E. coli; [11]): 1.1

COC(=O)[C@H]1[C@H]2C[C@H]3c4[nH]c5ccccc5c4CCN3C[C@H]2CC[C@@H]1O [Rauwolscine hydrochloride]
fold induction at 50 µM (E. faecium; [12]): 1 | fold induction at 50 µM (K. pneumoniae; [13]): 0.6 | fold induction at 50 µM (E. cloacae; [14]): 0.8 | fold induction at 50 µM (P. aeruginosa; [15]): 0.6 | fold induction at 50 µM [1, 16]: 0.8 | fold induction at 50 µM [2, 17]: 0.7 | fold induction at 50 µM (E. coli; [18]): 0.7

COc1cc(C(=O)NCc2ccc(OCCN(C)C)cc2)cc(OC)c1OC [Trimethobenzamide hydrochloride]
fold induction at 50 µM (E. faecium; planktonic E. faecium, 384-well, cutoff for positive-scoring molecules 3-fold increase, read-out: AK-based Prestwick Library Screening Results: E. faecium (increase in extracellular AK activity)): 1.1 | fold induction at 50 µM (K. pneumoniae; planktonic K. pneumoniae, 384-well, cutoff for positive-scoring molecules 3-fold increase, read-out: AK-based Prestwick Library Screening Results: K. pneumoniae (increase in extracellular AK activity)): 1.1 | fold induction at 50 µM (E. cloacae; planktonic E. cloacae, 384-well, cutoff for positive-scoring molecules 3-fold increase, read-out: AK-based Prestwick Library Screening Results: E. cloacae (increase in extracellular AK activity)): 1.3 | fold induction at 50 µM (P. aeruginosa; planktonic P. aeruginosa, 384-well, cutoff for positive-scoring molecules 3-fold increase, read-out: AK-based Prestwick Library Screening Results: P. aeruginosa (increase in extracellular AK activity)): 1 | fold induction at 50 µM ([1]; planktonic A. baumannii, 384-well, cutoff for positive-scoring molecules 3-fold increase, read-out: AK-based Prestwick Library Screening Results: A. baumannii (increase in extracellular AK activity)): 1.2 | fold induction at 50 µM ([2]; planktonic S. aureus, 384-well, cutoff for positive-scoring molecules 3-fold increase, read-out: AK-based Prestwick Library Screening Results: S. aureus (increase in extracellular AK activity)): 1.2 | fold induction at 50 µM (E. coli; planktonic E. coli, 384-well, cutoff for positive-scoring molecules 3-fold increase, read-out: AK-based Prestwick Library Screening Results: E. coli (increase in extracellular AK activity)): 1.2

O=c1cc(-c2ccc(O)cc2)oc2c([C@@H]3O[C@H](CO)[C@@H](O)[C@H](O)[C@H]3O)c(O)cc(O)c12 [Vitexin]
fold induction at 50 µM (E. faecium; [3]): 1 | fold induction at 50 µM (K. pneumoniae; [4]): 0.8 | fold induction at 50 µM (E. cloacae; [5]): 0.8 | fold induction at 50 µM (P. aeruginosa; [6]): 0.8 | fold induction at 50 µM [1, 7]: 0.7 | fold induction at 50 µM [2, 8]: 0.7 | fold induction at 50 µM (E. coli; planktonic, […], read-out: AK-based Prestwick Library Screening Results, E. coli (fold increase in extracellular AK activity)): 0.8

CCCCOC(=O)c1ccc(N)cc1 [Butamben]
fold induction at 50 µM (E. faecium; [3]): 0.8 | fold induction at 50 µM (K. pneumoniae; [4]): 0.6 | fold induction at 50 µM (E. cloacae; [5]): 1.7 | fold induction at 50 µM (P. aeruginosa; [6]): 0.9 | fold induction at 50 µM [1, 7]: 0.7 | fold induction at 50 µM [2, 8]: 1.1 | fold induction at 50 µM (E. coli; [9]): 0.8

CCCNCC(O)COc1ccccc1C(=O)CCc1ccccc1 (stereo not drawn) [Propafenone hydrochloride]
fold induction at 50 µM (E. faecium; [12]): 1 | fold induction at 50 µM (K. pneumoniae; [13]): 0.6 | fold induction at 50 µM (E. cloacae; [14]): 0.8 | fold induction at 50 µM (P. aeruginosa; [15]): 0.7 | fold induction at 50 µM [1, 16]: 0.7 | fold induction at 50 µM [2, 17]: 0.7 | fold induction at 50 µM (E. coli; [18]): 1

c1ccc2c(c1)CCCC2C1=NCCN1 (stereo not drawn) [Tetrahydrozoline hydrochloride]
fold induction at 50 µM (E. faecium; cutoff for positive-scoring molecules 3-fold increase, read-out: AK-based Prestwick Library Screening Results, E. faecium (fold increase in extracellular AK activity)): 1 | fold induction at 50 µM (K. pneumoniae; cutoff for positive-scoring molecules 3-fold increase, read-out: AK-based Prestwick Library Screening Results, K. pneumoniae (fold increase in extracellular AK activity)): 0.9 | fold induction at 50 µM (E. cloacae; cutoff for positive-scoring molecules 3-fold increase, read-out: AK-based Prestwick Library Screening Results, E. cloacae (fold increase in extracellular AK activity)): 1.4 | fold induction at 50 µM (P. aeruginosa; cutoff for positive-scoring molecules 3-fold increase, read-out: AK-based Prestwick Library Screening Results, P. aeruginosa (fold increase in extracellular AK activity)): 1 | fold induction at 50 µM ([1]; cutoff for positive-scoring molecules 3-fold increase, read-out: AK-based Prestwick Library Screening Results, A. baumannii (fold increase in extracellular AK activity)): 1 | fold induction at 50 µM ([2]; cutoff for positive-scoring molecules 3-fold increase, read-out: AK-based Prestwick Library Screening Results, S. aureus (fold increase in extracellular AK activity)): 1.1 | fold induction at 50 µM (E. coli; cutoff for positive-scoring molecules 3-fold increase, read-out: AK-based Prestwick Library Screening Results, E. coli (fold increase in extracellular AK activity)): 1.4

CCCOc1ccccc1-c1nc2nn[nH]c2c(=O)[nH]1 [Zaprinast]
fold induction at 50 µM (E. faecium; [12]): 1 | fold induction at 50 µM (K. pneumoniae; [13]): 0.5 | fold induction at 50 µM (E. cloacae; [14]): 0.8 | fold induction at 50 µM (P. aeruginosa; [15]): 0.7 | fold induction at 50 µM [1, 16]: 0.6 | fold induction at 50 µM [2, 17]: 0.6 | fold induction at 50 µM (E. coli; [18]): 0.7

CC(=O)NC1CCSC1=O (racemic) [N-Acetyl-DL-homocysteine Thiolactone]
AK-based Prestwick Library Screening Results, E. faecium (fold increase in extracellular AK activity) (E. faecium; [11]): 0.8 | AK-based Prestwick Library Screening Results, K. pneumoniae (fold increase in extracellular AK activity) (K. pneumoniae; [11]): 0.4 | AK-based Prestwick Library Screening Results, E. cloacae (fold increase in extracellular AK activity) (E. cloacae; [11]): 0.7 | AK-based Prestwick Library Screening Results, P. aeruginosa (fold increase in extracellular AK activity) (P. aeruginosa; [11]): 0.3 | AK-based Prestwick Library Screening Results, A. baumannii (fold increase in extracellular AK activity) [1, 11]: 0.4 | AK-based Prestwick Library Screening Results, S. aureus (fold increase in extracellular AK activity) [2, 11]: 0.4 | AK-based Prestwick Library Screening Results, E. coli (fold increase in extracellular AK activity) (E. coli; [11]): 0.5

CC1=C(C(=O)O)N2C(=O)[C@@H](NC(=O)[C@H](N)c3ccccc3)[C@H]2SC1 [Cephalexin monohydrate]
fold induction at 50 µM (E. faecium; [12]): 0.9 | fold induction at 50 µM (K. pneumoniae; [13]): 0.7 | fold induction at 50 µM (E. cloacae; [14]): 1.4 | fold induction at 50 µM (P. aeruginosa; [15]): 0.8 | fold induction at 50 µM [1, 16]: 0.9 | fold induction at 50 µM [2, 17]: 0.7 | fold induction at 50 µM (E. coli; [18]): 0.8
